Measured values reported in the supplement of paper PMC11616607.

Legend:
Assay in all cases: drug sensitivity score (DSS) from 5-point dose-response viability curve (DSS (area-under-curve based score)); higher = more sensitive (stronger growth inhibition or killing); extreme values may be limits of the assay
Settings in all cases: exposure time: 72 h; concentration range: 5 concentrations over 10,000-fold range
[1] = tested on: CAOV3
Method in brief: (§1)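 For the drug sensitivity score, obtained per cell line and drug in Breeze software, larger values mean greater sensitivity. No response corresponds to a score of zero. Ovarian cancer and normal ovarian cells were seeded at 1,500 per well into 384-well plates already holding acoustically dispensed drugs (Echo 550, DMSO or water, five concentrations over a 10,000-fold range) and incubated 3 days at 37°C, 5% CO2. CellTiter-Glo luminescence on a PHERAstar FS gave the viability readout.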

[2] = tested on: COV318
Method in brief: as §1

[3] = tested on: COV362
Method in brief: as §1

[4] = tested on: HOSE1C
Method in brief: as §1

[5] = tested on: HOSE2C
Method in brief: as §1

[6] = tested on: JHOS2
Method in brief: as §1

[7] = tested on: Kuramochi
Method in brief: as §1

[8] = tested on: OV90
Method in brief: as §1

[9] = tested on: OVCAR4
Method in brief: as §1

[10] = tested on: OVCAR5
Method in brief: as §1

[11] = tested on: OVCAR8
Method in brief: as §1

[12] = tested on: Ovsaho
Method in brief: as §1

## CC(C)(C)c1nc(-c2cccc(NS(=O)(=O)c3c(F)cccc3F)c2F)c(-c2ccnc(N)n2)s1 [Dabrafenib]
[1]
  drug sensitivity score: 0
[2]
  drug sensitivity score: 0
[3]
  drug sensitivity score: 0
[4]
  drug sensitivity score: 0
[5]
  drug sensitivity score: 0
[6]
  drug sensitivity score: 1.5
[7]
  drug sensitivity score: 0
[8]
  drug sensitivity score: 17.9
[9]
  drug sensitivity score: 0
[10]
  drug sensitivity score: 0
[11]
  drug sensitivity score: 0
[12]
  drug sensitivity score: 0

## CO[C@H]1C(=O)[C@]2(C)[C@@H](OC)C[C@H]3OC[C@@]3(OC(C)=O)[C@H]2[C@H](OC(=O)c2ccccc2)[C@]2(O)C[C@H](OC(=O)[C@H](O)[C@@H](NC(=O)OC(C)(C)C)c3ccccc3)C(C)=C1C2(C)C [Cabazitaxel]
[1]
  drug sensitivity score: 29.3
[2]
  drug sensitivity score: 7.3
[3]
  drug sensitivity score: 7.8
[4]
  drug sensitivity score: 29.9
[5]
  drug sensitivity score: 29.8
[6]
  drug sensitivity score: 12.8
[7]
  drug sensitivity score: 10.7
[8]
  drug sensitivity score: 13.2
[9]
  drug sensitivity score: 4.3
[10]
  drug sensitivity score: 25.6
[11]
  drug sensitivity score: 30.6
[12]
  drug sensitivity score: 9

## COc1ccc(-c2nc(N3CCOCC3)c3sc(CN(C)c4ncc(C(=O)NO)cn4)cc3n2)cn1 [CUDC-907]
[1]
  drug sensitivity score: 31.3
[2]
  drug sensitivity score: 21.3
[3]
  drug sensitivity score: 20.3
[4]
  drug sensitivity score: 45.8
[5]
  drug sensitivity score: 42.7
[6]
  drug sensitivity score: 26.4
[7]
  drug sensitivity score: 29.4
[8]
  drug sensitivity score: 37
[9]
  drug sensitivity score: 26.2
[10]
  drug sensitivity score: 38.3
[11]
  drug sensitivity score: 41.5
[12]
  drug sensitivity score: 29.2

## CCN(CC)CCOc1ccc(C(=C(Cl)c2ccccc2)c2ccccc2)cc1 [Clomifene]
[1]
  drug sensitivity score: 3.2
[2]
  drug sensitivity score: 2.2
[3]
  drug sensitivity score: 4.4
[4]
  drug sensitivity score: 5.8
[5]
  drug sensitivity score: 4.1
[6]
  drug sensitivity score: 3.8
[7]
  drug sensitivity score: 3.9
[8]
  drug sensitivity score: 6.9
[9]
  drug sensitivity score: 1.9
[10]
  drug sensitivity score: 7
[11]
  drug sensitivity score: 3.1
[12]
  drug sensitivity score: 3.2

## NC(=O)/C(=C/n1cnc(-c2cc(C(F)(F)F)cc(C(F)(F)F)c2)n1)c1cncnc1 [Eltanexor]
[1]
  drug sensitivity score: 18.9
[2]
  drug sensitivity score: 7.5
[3]
  drug sensitivity score: 10.9
[4]
  drug sensitivity score: 34.6
[5]
  drug sensitivity score: 15.7
[6]
  drug sensitivity score: 19
[7]
  drug sensitivity score: 10.9
[8]
  drug sensitivity score: 13.2
[9]
  drug sensitivity score: 13.7
[10]
  drug sensitivity score: 14.8
[11]
  drug sensitivity score: 21.5
[12]
  drug sensitivity score: 19.3

## O=C(Nc1cc(Cl)cc2c1[nH]c1cnccc12)c1cccnc1 [PS-1145]
[1]
  drug sensitivity score: 0
[2]
  drug sensitivity score: 0
[3]
  drug sensitivity score: 0
[4]
  drug sensitivity score: 0
[5]
  drug sensitivity score: 0
[6]
  drug sensitivity score: 0
[7]
  drug sensitivity score: 0.6
[8]
  drug sensitivity score: 1
[9]
  drug sensitivity score: 0.3
[10]
  drug sensitivity score: 1.6
[11]
  drug sensitivity score: 0
[12]
  drug sensitivity score: 0

## CC[C@H](CC#N)OC(=O)N[C@@H](C)c1cccc(NC(=O)Nc2ccc(-c3cnco3)c(OC)c2)c1 [AVN944]
[1]
  drug sensitivity score: 10.9
[2]
  drug sensitivity score: 9.4
[3]
  drug sensitivity score: 3.3
[4]
  drug sensitivity score: 25
[5]
  drug sensitivity score: 15.8
[6]
  drug sensitivity score: 9.6
[7]
  drug sensitivity score: 8
[8]
  drug sensitivity score: 12.7
[9]
  drug sensitivity score: 7
[10]
  drug sensitivity score: 13.6
[11]
  drug sensitivity score: 11.1
[12]
  drug sensitivity score: 9.5

## CCn1c(=O)c(-c2ccc(Cl)cc2Cl)cc2cnc(Nc3ccc(N4CCNCC4)c(F)c3)nc21 [FRAX486]
[1]
  drug sensitivity score: 4.2
[2]
  drug sensitivity score: 4.2
[3]
  drug sensitivity score: 6.3
[4]
  drug sensitivity score: 7.6
[5]
  drug sensitivity score: 12.1
[6]
  drug sensitivity score: 3.7
[7]
  drug sensitivity score: 4.3
[8]
  drug sensitivity score: 5.5
[9]
  drug sensitivity score: 5.1
[10]
  drug sensitivity score: 4.9
[11]
  drug sensitivity score: 3.8
[12]
  drug sensitivity score: 7

## CC#CC(=O)N1CCC[C@H]1c1nc(-c2ccc(C(=O)Nc3ccccn3)cc2)c2c(N)nccn12 [Acalabrutinib]
[1]
  drug sensitivity score: 0
[2]
  drug sensitivity score: 3.5
[3]
  drug sensitivity score: 0.3
[4]
  drug sensitivity score: 0
[5]
  drug sensitivity score: 0
[6]
  drug sensitivity score: 0.8
[7]
  drug sensitivity score: 6.2
[8]
  drug sensitivity score: 0
[9]
  drug sensitivity score: 2.1
[10]
  drug sensitivity score: 0.2
[11]
  drug sensitivity score: 0
[12]
  drug sensitivity score: 1

## Cc1c(C(=O)Nc2ccc(N3C[C@@H](C)O[C@@H](C)C3)nc2)cccc1-c1ccc(OC(F)(F)F)cc1 [Sonidegib]
[1]
  drug sensitivity score: 0
[2]
  drug sensitivity score: 2.6
[3]
  drug sensitivity score: 0
[4]
  drug sensitivity score: 1.6
[5]
  drug sensitivity score: 1.8
[6]
  drug sensitivity score: 2.2
[7]
  drug sensitivity score: 4.7
[8]
  drug sensitivity score: 1.3
[9]
  drug sensitivity score: 0.2
[10]
  drug sensitivity score: 1.2
[11]
  drug sensitivity score: 3.3
[12]
  drug sensitivity score: 2.5

## CNCc1ccc(-c2[nH]c3cc(F)cc4c3c2CCNC4=O)cc1 [Rucaparib]
[1]
  drug sensitivity score: 0
[2]
  drug sensitivity score: 0.5
[3]
  drug sensitivity score: 0
[4]
  drug sensitivity score: 0
[5]
  drug sensitivity score: 0
[6]
  drug sensitivity score: 0.7
[7]
  drug sensitivity score: 0.3
[8]
  drug sensitivity score: 1.7
[9]
  drug sensitivity score: 0
[10]
  drug sensitivity score: 1.2
[11]
  drug sensitivity score: 1.8
[12]
  drug sensitivity score: 0.4

## c1cn2cc(-c3ccc4cn[nH]c4c3)nc(Nc3ccc(N4CCOCC4)cc3)c2n1 [Entospletinib]
[1]
  drug sensitivity score: 0
[2]
  drug sensitivity score: 0
[3]
  drug sensitivity score: 0
[4]
  drug sensitivity score: 0
[5]
  drug sensitivity score: 0
[6]
  drug sensitivity score: 0.1
[7]
  drug sensitivity score: 0
[8]
  drug sensitivity score: 0
[9]
  drug sensitivity score: 0
[10]
  drug sensitivity score: 1.3
[11]
  drug sensitivity score: 1.7
[12]
  drug sensitivity score: 0

## C[C@@H](Oc1cc(-n2cnc3ccc(CN4CCN(C)CC4)cc32)sc1C(N)=O)c1ccccc1C(F)(F)F
[1]
  drug sensitivity score: 22.4
[2]
  drug sensitivity score: 6.8
[3]
  drug sensitivity score: 3.6
[4]
  drug sensitivity score: 13.7
[5]
  drug sensitivity score: 10.1
[6]
  drug sensitivity score: 15.3
[7]
  drug sensitivity score: 7.7
[8]
  drug sensitivity score: 19.6
[9]
  drug sensitivity score: 3.6
[10]
  drug sensitivity score: 19.4
[11]
  drug sensitivity score: 29.1
[12]
  drug sensitivity score: 24.7

## CC[C@@H](C(=O)[C@@H](C)[C@@H](O)[C@H](C)[C@@H]1O[C@@H]([C@@H](CC)C(=O)O)CC[C@@H]1C)[C@H]1O[C@]2(C=C[C@@H](O)[C@]3(CC[C@@](C)([C@H]4CC[C@](O)(CC)[C@H](C)O4)O3)O2)[C@H](C)C[C@@H]1C [Salinomycin]
[1]
  drug sensitivity score: 15.4
[2]
  drug sensitivity score: 13.4
[3]
  drug sensitivity score: 8.2
[4]
  drug sensitivity score: 21.2
[5]
  drug sensitivity score: 22.1
[6]
  drug sensitivity score: 18.3
[7]
  drug sensitivity score: 21
[8]
  drug sensitivity score: 19.4
[9]
  drug sensitivity score: 14.2
[10]
  drug sensitivity score: 13.2
[11]
  drug sensitivity score: 17.9
[12]
  drug sensitivity score: 27.1
